Laboratory results: patent publication US6787141B1, “Peptide having for fibrinogen fragment E activity, analogs, antibodies and uses thereof” (The University Court of The University of Aberdeen, priority 1999, dated 2004)

How the values were obtained:
[1] = test system: chick chorioallantoic membrane (CAM); assay: chick chorioallantoic membrane (CAM) cell proliferation assay (DNA synthesis, tritiated thymidine); type: in vivo
Procedure: Cell proliferation was measured using the chick chorioallantoic membrane (CAM) model as described previously (4, 29, 30).The assay used is based on quantitative measurement of DNA synthesis in the CAM after exposure to control and test substances 18 h after application in liquid form to the whole “dropped” area of each CAM (4, 29). This assay is a measure of changes in CAM vascularity (30).
The rabbit and rat antisera were mixed with active fibrin degradation products. These were applied to the chick CAM with a positive control (fibrin degradation products) and a negative control (the antibody alone). The CAM was processed for incorporation of tritiated thymidine.
The rabbit antisera were then tested for ability to block the stimulatory activity of human FDP on the chick CAM model. The assay used was based on quantitative measurement of DNA synthesis in the CAM after exposure to control and test substances 18 h after application in liquid form to the whole “dropped” area of each CAM (4,29). This assay is a measure of changes in CAM vascularity (30). Anti phage antisera, raised by relatively short term immunisation of rabbits, were used at a 1/2 dilution and admixed with FDP used at a concentration of approximately 1.95 mg/ml diluted before use to 1/10. Controls included buffer only and antiserum only groups of CAMs. After filter sterilisation, 0.3 ml was added onto each CAM dropped surface.

Chick fibroblasts = assay: cell immunohistochemistry; type: cell-based; settings: 2 hours exposure
Procedure: Chick fibroblasts were cultured in a 25 cm^2 flask (Nunc) until confluent (approximately 3×10^6 cells). The cells were washed in PBS and then trypsinised and diluted to 3×10^5 cells per ml in Dulbecco modified medium with 10% foetal calf serum. […] of the cells suspension was plated into each well of a Nunc culture well slide. The cells were incubated overnight to allow adhesion and recovery from the passaging. Digoxygenin labelled fibrin fragment E was added to a final concentration of 8 mg per ml. Control wells contained unconjugated digoxygenin and PBS.
The cells were rinsed after 2 hours with PBS then washed 3 times in TBS followed by one wash in distilled water. The cells were then incubated for 2 hours with sheep anti-digoxygenin alkaline phosphatase. The slides were then washed three times in TBS and developed with NBT and BCIP in bicarbonate buffer pH 9.8. The slides were air dried and then mounted for observation of membrane staining under the microscope.

[2] = test system: Chick fibroblasts, Cos7, mouse 3T3 and human embryonic lung cells (HEL); assay: cell binding assays; type: cell-based; settings: each of the cell types; 6 hours at 37° C.
Procedure: Chick fibroblasts, Cos7, mouse 3T3 and human embryonic lung cells (HEL) were cultured in a 25 cm^2 flask (Nunc) until confluent (approximately 3×10^6 cells). The cells were trypsinised and resuspended at concentration of 1.3×10^5 cells/ml. 200 μl of this cell suspension was added to each well of a 96 well culture plate (Nunc). The cells were incubated overnight at 37° C. to allow adherence and recovery. The cells were then divided into three sections, digoxygenin controls, PBS controls and digoxygenin labelled fragment E tests. Increasing concentrations of digoxygenin and digoxygenin labelled fibrin fragment E were applied from 0-30 mg per well. The plates were incubated for 6 hours at 37° C. under culture conditions.
The plates were emptied of media and washed three times with PBS. The cells were then incubated for 2 hours with sheep antidigoxygenin alkaline phosphatase and developed with p-nitrophenyl phosphate in bicarbonate buffer pH 9.8. The plates were read on a Titertek Multiscan plate reader at 405 nm.

Molecule: CRAHSFGSPRPLPVV [WTM110]
- inhibition of the stimulatory effect of FDP ([1]; FIG. 4 legend, concentration not given): inhibits
- inhibition of FDP induced cell proliferation ([1]; peptide at 7.5 μg/ml): little inhibition
- inhibition of FDP induced cell proliferation ([1]; peptide at 15 μg/ml): inhibition was demonstrated with cell proliferation reduced to control level

B1: fibrin fragment E: fibrin fragment E, labelled with digoxygenin ester for detection (protein)
chain 1: GPRVVERHQSACKDSDWPFCSDEDWNYKCPSGCRMKGLIDEVNQDFTNRINKLKNSLFEYQK
chain 2: GHRPLDKKREEAPSLRPAPPPISGGGYRARPAKAAATQKKVERKAPDAGGCLHADPDLGVLCPTGCQLQEALLQQERPIRNSVDELNNNVEAVSQTSSSSFQYMYLLK
chain 3: YVATRDNCCILDERFGSYCPTTCGIADFLSTYQTKVDKDLQSLEDILHQVENKTSEVKQLIK
- binding to cells (membrane staining) (Chick fibroblasts): shown to bind
- binding to cells (absorbance at 405 nm compared to control preparations) [2]: high absorbance
